Assay results as given in patent US20200369728A1, “PEPTIDOMIMETIC MACROCYCLES AND USES THEREOF” (Aileron Therapeutics, Inc., priority 2015, published 2020).
Bridge positions count the residues as written; N and C are the ends. Square brackets hold non-standard residues; d marks the D form. Peptide text beside a SMILES is read from it. Trp(6-Cl) = N[C@@H](Cc1c[nH]c2cc(Cl)ccc12)C(=O)O; R8 = C=CCCCCCC[C@@](C)(N)C(=O)O; S5 = C=CCCC[C@](C)(N)C(=O)O; Nle = CCCC[C@H](N)C(=O)O

Key:
[1] = test system: SJSA-1 cells; experiment: Cell lysis by peptidomimetic macrocycles (LDH release); format: cell-based; details: SJSA-1, 1 h
Procedure, shortened: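 Membrane lysis measured as supernatant LDH after a 1 h, 37 °C exposure of SJSA-1 cells, held in RPMI with 1% FBS, to macrocycles at final 6.25-50 μM with 0.5% DMSO. Lytic references were 10 μM melittin and 1% Triton X-100; DMSO alone served as non-lytic control.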

[2] = test system: Caspase 3; experiment: Caspase 3 detection assay in SJSA1 cells; format: cell-based; details: SJSA1, 48 h, Caspase 3 activation over DMSO-treated cells
[3] = Circular dichroism (CD) analysis of alpha-helicity; format: physicochemical; details: for Molar Ellipticity TFE − Molar Ellipticity Benign / Molar Ellipticity 50% TFE (222 in 50% TFE) / Molar Ellipticity Benign (222 in 0% TFE): 222 nm; for Molar Ellipticity 50% TFE (222 in 50% TFE): CD buffer with 50% TFE; for Molar Ellipticity 50% TFE (222 in 50% TFE) / Molar Ellipticity Benign (222 in 0% TFE): 0.05 mg/ml, 4° C.; for Molar Ellipticity Benign (222 in 0% TFE): benign CD buffer (20 mM phosphoric acid, pH 2); for % Helix benign compared to 50% TFE parent (CD): benign buffer
Procedure: Peptide solutions were analyzed by CD spectroscopy using a Jasco J-815 spectropolarimeter (Jasco Inc., Easton, Md.) with the Jasco Spectra Manager Ver. 2 system software. A Peltier temperature controller was used to maintain temperature control of the optical cell. Results are expressed as mean molar ellipticity (deg cm^2 dmol^−1) as calculated from the equation [0]=θobs·MRW/10*l*c where θobs is the observed ellipticity in millidegrees, MRW is the mean residue weight of the peptide (peptide molecular weight/number of residues), 1 is the optical path length of the cell in centimeters, and c is the peptide concentration in mg/ml. Peptide concentrations were determined by amino acid analysis. Stock solutions of peptides were prepared in benign CD buffer (20 mM phosphoric acid, pH 2). The stocks were used to prepare peptide solutions of 0.05 mg/ml in either benign CD buffer or CD buffer with 50% trifluoroethanol (TFE) for analyses in a 10 mm pathlength cell. Variable wavelength measurements of peptide solutions were scanned at 4° C. from 195 to 250 nm, in 0.2 nm increments, and a scan rate 50 nm per minute. The average of six scans was reported.

[4] = test system: RKO; experiment: Cell viability assay (MTT), RKO; details: read-out: RKO EC50 (72 h)

Compound	6.25 μM % Lysed cells (1 h LDH) [1]	25 μM % Lysed cells (1 h LDH) [1]	50 μM % Lysed cells (1 h LDH) [1]	caspase 0.3 μM [2]	caspase 3 μM [2]	caspase 10 μM [2]	caspase 30 μM [2]	% Helix 50% TFE compared to 50% TFE parent (CD) [3]	Molar Ellipticity TFE − Molar Ellipticity Benign [3]	Molar Ellipticity 50% TFE (222 in 50% TFE) [3]	Molar Ellipticity Benign (222 in 0% TFE) [3]	% Helix benign compared to 50% TFE parent (CD) [3]	EC50 [4]	caspase 1 μM ([2]; 1 μM)
CC(=O)N[C@@H](CC(C)C)C(=O)N[C@H](C(=O)N[C@@H](Cc1ccccc1)C(=O)N[C@]1(C)CCCCCCC=CCCC[C@@](C)(C(=O)N[C@@H](CO)C(=O)N[C@@H](C)C(=O)N[C@@H](C)C(N)=O)NC(=O)[C@H](CC(C)C)NC(=O)[C@H](CCC(N)=O)NC(=O)[C@H](C)NC(=O)[C@H](Cc2c[nH]c3ccccc23)NC(=O)[C@H](Cc2ccc(O)cc2)NC(=O)[C@H](C)NC1=O)[C@@H](C)O [compound 11] (Ac-LTF[R8]AYWAQL[S5]SAA-NH2; staple 4-11)	−2%	2%	3%	1	5	23	33.5	106.1%	16225.2 deg cm^2 dmol^−1	−16623.4 deg cm^2 dmol^−1	−398.2 deg cm^2 dmol^−1	2.5%	< 5 µM	
CC(=O)N[C@@H](CC(C)C)C(=O)N[C@H](C(=O)N[C@@H](Cc1ccccc1)C(=O)N[C@]1(C)CCCCCCC=CCCC[C@@](C)(C(=O)N[C@@H](Cc2c[nH]cn2)C(=O)N[C@@H](Cc2c[nH]cn2)C(=O)N[C@@H](CC(C)C)C(=O)N[C@H](C)C(N)=O)NC(=O)[C@H](CC(C)C)NC(=O)[C@H](CCC(N)=O)NC(=O)[C@H](C)NC(=O)[C@H](Cc2c[nH]c3ccccc23)NC(=O)[C@H](Cc2ccc(O)cc2)NC(=O)[C@H](C)NC1=O)[C@@H](C)O [compound 43] (Ac-LTF[R8]AYWAQL[S5]HHL[dA]-NH2; staple 4-11)	0%	−1%	−1%					116.4%	2912.9 deg cm^2 dmol^−1	−18247.4 deg cm^2 dmol^−1	−15334.5 deg cm^2 dmol^−1	97.8%		
CCCC[C@H](NC(=O)[C@H](CCC(N)=O)NC(=O)[C@H](CCC(N)=O)NC(=O)[C@]1(C)CCCC=CCCCCCC[C@@](C)(NC(=O)[C@H](Cc2ccccc2)NC(C)=O)C(=O)N[C@@H](C)C(=O)N[C@@H](Cc2ccc(O)cc2)C(=O)N[C@@H](Cc2c[nH]c3ccccc23)C(=O)N[C@@H]([C@@H](C)O)C(=O)N[C@@H](C)C(=O)N[C@@H](CC(C)C)C(=O)N1)C(=O)N[C@@H](C(N)=O)C(C)C [compound 41] (Ac-F[R8]AYWTAL[S5]QQ[Nle][dV]-NH2; staple 2-9)								136%		−21319.4 deg cm^2 dmol^−1	−909 deg cm^2 dmol^−1	5.8%		
CC(=O)N[C@@H](CC(C)C)C(=O)N[C@H](C(=O)N[C@@H](Cc1ccccc1)C(=O)N[C@]1(C)CCCCCCC=CCCC[C@@](C)(C(=O)N[C@@H](C)C(=O)N[C@@H](C)C(=O)N[C@@H](C)C(=O)N[C@@H](C)C(=O)N[C@H](C)C(N)=O)NC(=O)[C@H](CC(C)C)NC(=O)[C@H](CCC(N)=O)NC(=O)[C@H](C)NC(=O)[C@H](Cc2c[nH]c3ccccc23)NC(=O)[C@H](Cc2ccc(O)cc2)NC(=O)[C@H](C)NC1=O)[C@@H](C)O [compound 233]	2.5%	3.5%	6%	6	17	22	23	131.2%	−18554.7 deg cm^2 dmol^−1	−19032.6 deg cm^2 dmol^−1	−477.9 deg cm^2 dmol^−1	3.3%		8
CC(=O)N[C@@H](CC(C)C)C(=O)N[C@H](C(=O)N[C@@H](Cc1ccccc1)C(=O)N[C@]1(C)CCCCCCC=CCCC[C@@](C)(C(=O)N[C@@H](C)C(=O)N[C@@H](C)C(=O)N[C@@H](C)C(=O)N[C@H](C)C(N)=O)NC(=O)[C@H](CC(C)C)NC(=O)[C@H](CCC(N)=O)NC(=O)[C@H](C)NC(=O)[C@H](Cc2c[nH]c3ccccc23)NC(=O)[C@H](Cc2ccc(O)cc2)NC(=O)[C@H](C)NC1=O)[C@@H](C)O (single isomer, unassigned) [compound 230]	0.5%	0%	3%	1	2	3	11	123.9%	−17760.8 deg cm^2 dmol^−1	−17974 deg cm^2 dmol^−1	−213.2 deg cm^2 dmol^−1	1.5%		
CC(=O)N[C@@H](CC(C)C)C(=O)N[C@H](C(=O)N[C@@H](Cc1ccccc1)C(=O)N[C@]1(C)CCCCCCC=CCCC[C@@](C)(C(=O)N[C@@H](C)C(=O)N[C@@H](C)C(=O)N[C@@H](Cc2ccccc2)C(=O)N[C@H](C)C(N)=O)NC(=O)[C@H](CC(C)C)NC(=O)[C@H](CCC(N)=O)NC(=O)[C@H](C)NC(=O)[C@H](Cc2c[nH]c3ccccc23)NC(=O)[C@H](Cc2ccc(O)cc2)NC(=O)[C@H](CCC(=O)O)NC1=O)[C@@H](C)O (single isomer, unassigned) [compound 219]	0%	−1%	2%	1	5	17	34						5 to 15 µM	
CC(=O)N[C@@H](CC(C)C)C(=O)N[C@H](C(=O)N[C@@H](Cc1ccccc1)C(=O)N[C@]1(C)CCCCCCC=CCCC[C@@](C)(C(=O)N[C@@H](CO)C(=O)N[C@@H](C)C(=O)N[C@@H](CC(C)C)C(N)=O)NC(=O)[C@H](CC(C)C)NC(=O)[C@H](CCC(N)=O)NC(=O)[C@H](C)NC(=O)[C@H](Cc2c[nH]c3ccccc23)NC(=O)[C@H](Cc2ccc(O)cc2)NC(=O)[C@H](C)NC1=O)[C@@H](C)O [compound 4] (Ac-LTF[R8]AYWAQL[S5]SAL-NH2; staple 4-11)	−2%	1%	2%		9	37	35						< 5 µM	
CC(=O)N[C@@H](CC(C)C)C(=O)N[C@H](C(=O)N[C@@H](Cc1ccccc1)C(=O)N[C@]1(C)CCCCCC/C=C/CCC[C@@](C)(C(=O)N[C@@H](CO)C(=O)N[C@@H](C)C(=O)N[C@@H](C)C(N)=O)NC(=O)[C@H](CC(C)C)NC(=O)[C@H](CCC(N)=O)NC(=O)[C@H](C)NC(=O)[C@H](Cc2c[nH]c3cc(Cl)ccc23)NC(=O)[C@H](Cc2ccc(O)cc2)NC(=O)[C@H](C)NC1=O)[C@@H](C)O [compound 99] (Ac-LTF[R8]AY[Trp(6-Cl)]AQL[S5]SAA-NH2; staple (E) 4-11)	1.5%	2%	3.5%	1	7	31	33						< 5 µM	
